In patent US20230263907A1, “PREPARATION OF SOLID CYCLODEXTRIN COMPLEXES FOR OPHTHALMIC ACTIVE PHARMACEUTICAL INGREDIENT DELIVERY” (OCULIS SA, priority 2020, published 2023):
Values after ≈ are worked out from the molar mass of the structure shown. Marks after values point to notes of the source that are not given here. Values belong to the compound of their own block, whether it stands above or below them.

Experiments:
VEGFR2 [1] = biological target: T1, VEGFR2 (Homo sapiens, UniProt P35968); assay: VEGFR2 IC50 values obtained from Selleckchem, Tocris Bioscience and TargetMol; type: biochemical; conditions: ratio of vendor IC50 values
EGFR = EGFR (Homo sapiens, UniProt P00533); conditions: vendor data; cited from earlier work
VEGFR2 [2] = assay: PamChip kinase activity profiling in cornea tissue lysates; set-up: VEGFR2 inhibition, Cornea: dose or concentration left out as unconfirmed; conditions: rabbit cornea lysate
VEGFR2 [3] = assay: PamChip kinase activity profiling in retina tissue lysates; set-up: VEGFR2 inhibition, Retina: dose or concentration left out as unconfirmed; conditions: rabbit retina lysate
[4] = cited from earlier work
[5] = biological target: T2, EGFR (C-terminal fragment, amino acids H672-A1210) (Homo sapiens, UniProt P00533); assay: PamChip tyrosine kinase peptide array assay, recombinant EGFR; type: biochemical
T2 construct: EGFR (C-terminal fragment, amino acids H672-A1210); purchased Proqinase (Freiburg Germany)

[6] = 7 days
VEGFR2 [7] = biological target: T1, VEGFR2; conditions: vendor data; cited from earlier work
[8] = biological target: VEGFR2 (C-terminal fragment, amino acids D807-V1356) (Homo sapiens, UniProt P35968)
[9] = Stability of orantinib in an autoclave; type: physicochemical
From the text: Each vial was then split up into 2 vials. One vial of each set was autoclaved and all samples analyzed by HPLC.

[10] = Phase solubility screening of orantinib with gamma-cyclodextrin at pH 6; type: physicochemical; conditions: 22.5 °C, thermodynamic from solid
Description: Phase solubility screening with gamma-cyclodextrin at pH 6. […] The suspensions formed were autoclaved for 15 minutes at 121° C.

[11] = Solid and dissolved drug fraction and particle size of eye drop microsuspensions; type: physicochemical
[12] = Experimental aqueous solubility; type: physicochemical
From the text: Further improvement of the complexation efficacy is obtained by addition of EDTA and polymers like tyloxapol.

[13] = cited from earlier work; for solubility in pure water: 25° C.
[14] = Solubility of axitinib free base with various acids and γ-cyclodextrin
[15] = Dissolution test of eye drop formulations in water; type: physicochemical; conditions: formulation AF1, 450 times dilution in water, maximum at about 10 minutes
Description: In order to keep high concentrations of dissolved kinase inhibitors in the aqueous tear fluid the dissolution of the kinase inhibitor must proceed very quickly upon media dilution. The test formulation was above DF3 and the reference formulation was AF1 comprising acrizanib (Table 4 below). A dissolution test was performed by direct adding of a formulation aliquot into defined volume of water under constant stirring speed. The formulation/water ratio (final dilution) selection was based on the quantification limit of the used HPLC method and on the acrizanib solubility. The final dilution of 450 times was selected. At certain time after adding the formulation to water a sample of about 1 ml was taken from a stirring media, filtered through 0.45 µm filter and transferred to an HPLC vial for analysis.

[16] = γ-cyclodextrin eye drop formulations

T1 sequence (P35968 20-1356, species assumed): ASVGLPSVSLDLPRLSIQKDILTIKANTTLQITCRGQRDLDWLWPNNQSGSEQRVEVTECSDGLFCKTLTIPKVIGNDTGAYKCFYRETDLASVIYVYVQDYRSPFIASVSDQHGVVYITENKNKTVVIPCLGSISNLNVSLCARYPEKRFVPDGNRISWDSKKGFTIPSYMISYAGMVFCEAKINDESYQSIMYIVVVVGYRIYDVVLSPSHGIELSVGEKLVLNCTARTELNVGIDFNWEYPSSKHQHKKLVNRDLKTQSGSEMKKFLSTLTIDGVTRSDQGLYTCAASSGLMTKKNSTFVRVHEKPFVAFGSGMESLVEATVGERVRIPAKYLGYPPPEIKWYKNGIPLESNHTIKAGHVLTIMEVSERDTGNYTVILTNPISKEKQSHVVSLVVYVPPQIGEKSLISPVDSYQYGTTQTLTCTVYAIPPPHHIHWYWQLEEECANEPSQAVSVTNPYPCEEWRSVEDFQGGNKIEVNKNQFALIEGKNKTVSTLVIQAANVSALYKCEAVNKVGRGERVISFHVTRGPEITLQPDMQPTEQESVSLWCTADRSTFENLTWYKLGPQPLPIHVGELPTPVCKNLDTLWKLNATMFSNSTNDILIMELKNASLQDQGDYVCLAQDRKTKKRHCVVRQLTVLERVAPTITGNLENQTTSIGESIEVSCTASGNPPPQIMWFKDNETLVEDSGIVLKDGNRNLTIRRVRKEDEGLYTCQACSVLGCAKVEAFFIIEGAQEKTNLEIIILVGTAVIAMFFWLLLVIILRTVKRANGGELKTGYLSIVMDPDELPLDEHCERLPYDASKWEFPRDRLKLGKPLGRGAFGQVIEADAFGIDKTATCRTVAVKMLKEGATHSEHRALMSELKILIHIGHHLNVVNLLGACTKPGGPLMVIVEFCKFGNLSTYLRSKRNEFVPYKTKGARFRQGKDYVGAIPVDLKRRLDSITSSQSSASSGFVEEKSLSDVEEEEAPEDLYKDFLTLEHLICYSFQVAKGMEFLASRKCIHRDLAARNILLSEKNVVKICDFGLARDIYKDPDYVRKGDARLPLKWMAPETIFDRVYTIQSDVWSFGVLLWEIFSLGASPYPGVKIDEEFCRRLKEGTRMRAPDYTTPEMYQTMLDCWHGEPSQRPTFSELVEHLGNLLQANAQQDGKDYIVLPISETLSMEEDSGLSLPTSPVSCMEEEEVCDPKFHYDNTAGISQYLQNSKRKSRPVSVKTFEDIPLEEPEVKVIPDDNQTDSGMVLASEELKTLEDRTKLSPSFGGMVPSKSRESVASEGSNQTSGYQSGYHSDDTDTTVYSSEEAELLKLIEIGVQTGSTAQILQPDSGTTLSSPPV
Chain of EGFR (P00533 25-1210, species assumed): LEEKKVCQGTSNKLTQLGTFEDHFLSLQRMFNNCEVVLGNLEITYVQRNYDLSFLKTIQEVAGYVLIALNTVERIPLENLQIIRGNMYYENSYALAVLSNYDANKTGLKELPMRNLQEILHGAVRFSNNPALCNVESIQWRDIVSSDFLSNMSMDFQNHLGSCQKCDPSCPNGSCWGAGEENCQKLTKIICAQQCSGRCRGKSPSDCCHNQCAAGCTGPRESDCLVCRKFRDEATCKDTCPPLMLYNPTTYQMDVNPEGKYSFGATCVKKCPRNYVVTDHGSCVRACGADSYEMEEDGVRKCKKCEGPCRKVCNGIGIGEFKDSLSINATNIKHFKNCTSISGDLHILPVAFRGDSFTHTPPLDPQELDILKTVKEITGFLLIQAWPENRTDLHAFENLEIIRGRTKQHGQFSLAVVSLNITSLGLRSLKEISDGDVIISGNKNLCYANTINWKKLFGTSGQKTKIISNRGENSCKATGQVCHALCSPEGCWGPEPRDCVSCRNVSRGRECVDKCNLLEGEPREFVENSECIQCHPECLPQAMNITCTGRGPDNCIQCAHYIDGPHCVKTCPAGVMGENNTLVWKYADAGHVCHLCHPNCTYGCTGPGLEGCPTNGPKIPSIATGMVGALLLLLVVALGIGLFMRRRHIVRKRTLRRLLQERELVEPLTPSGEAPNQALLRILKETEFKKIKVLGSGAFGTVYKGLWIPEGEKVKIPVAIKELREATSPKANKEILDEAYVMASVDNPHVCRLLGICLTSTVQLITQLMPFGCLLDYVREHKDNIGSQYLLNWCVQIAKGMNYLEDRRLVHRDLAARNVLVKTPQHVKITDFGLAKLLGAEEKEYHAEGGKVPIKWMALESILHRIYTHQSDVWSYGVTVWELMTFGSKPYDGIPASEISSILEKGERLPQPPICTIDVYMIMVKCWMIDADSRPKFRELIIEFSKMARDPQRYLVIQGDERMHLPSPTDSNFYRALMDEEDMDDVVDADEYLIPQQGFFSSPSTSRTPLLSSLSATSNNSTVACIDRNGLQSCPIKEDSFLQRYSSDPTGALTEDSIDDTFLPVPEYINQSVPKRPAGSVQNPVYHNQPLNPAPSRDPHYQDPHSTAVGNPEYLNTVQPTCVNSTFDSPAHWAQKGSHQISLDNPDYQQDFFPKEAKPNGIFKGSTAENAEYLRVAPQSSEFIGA
Chain of VEGFR2 (C-terminal fragment, amino acids D807-V1356) (P35968 807-1356): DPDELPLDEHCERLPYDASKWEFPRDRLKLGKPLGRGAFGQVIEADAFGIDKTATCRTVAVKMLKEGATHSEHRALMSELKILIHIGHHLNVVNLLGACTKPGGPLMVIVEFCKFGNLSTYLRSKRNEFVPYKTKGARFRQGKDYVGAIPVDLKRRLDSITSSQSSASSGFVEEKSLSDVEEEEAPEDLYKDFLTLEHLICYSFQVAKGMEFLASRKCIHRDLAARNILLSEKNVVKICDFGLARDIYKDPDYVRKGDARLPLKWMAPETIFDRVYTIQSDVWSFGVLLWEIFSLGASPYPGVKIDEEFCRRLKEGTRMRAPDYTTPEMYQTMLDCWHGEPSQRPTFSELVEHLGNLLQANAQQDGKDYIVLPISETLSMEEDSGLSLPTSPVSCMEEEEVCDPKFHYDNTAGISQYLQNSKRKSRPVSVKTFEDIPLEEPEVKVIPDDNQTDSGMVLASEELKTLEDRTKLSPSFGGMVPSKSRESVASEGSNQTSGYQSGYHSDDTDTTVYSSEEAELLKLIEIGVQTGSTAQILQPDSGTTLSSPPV
T2 sequence (P00533 672-1210): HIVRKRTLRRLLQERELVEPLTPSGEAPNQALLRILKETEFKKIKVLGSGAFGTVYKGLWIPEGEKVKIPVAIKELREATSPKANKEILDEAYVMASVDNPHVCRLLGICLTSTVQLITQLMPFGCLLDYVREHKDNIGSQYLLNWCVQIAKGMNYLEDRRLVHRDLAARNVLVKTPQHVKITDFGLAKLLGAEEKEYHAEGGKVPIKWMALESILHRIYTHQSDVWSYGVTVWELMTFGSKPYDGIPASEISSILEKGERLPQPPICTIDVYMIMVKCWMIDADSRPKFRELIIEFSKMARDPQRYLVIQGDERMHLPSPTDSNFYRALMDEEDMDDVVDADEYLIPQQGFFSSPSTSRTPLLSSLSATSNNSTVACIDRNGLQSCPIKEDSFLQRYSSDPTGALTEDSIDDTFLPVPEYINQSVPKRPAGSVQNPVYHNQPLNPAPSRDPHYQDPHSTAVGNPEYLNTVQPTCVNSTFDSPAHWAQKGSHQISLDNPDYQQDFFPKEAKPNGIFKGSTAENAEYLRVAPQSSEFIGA

Compound: COC(=O)c1ccc2c(c1)NC(=O)/C2=C(\Nc1ccc(N(C)C(=O)CN2CCN(C)CC2)cc1)c1ccccc1 [Nintedanib]
- VEGFR2 inhibition, Cornea (VEGFR2 [2]): 95.92%
- VEGFR2 potency ranking in cornea (VEGFR2 [2]): most potent VEGFR2 inhibitor
- VEGFR2 inhibition, Retina (VEGFR2 [3]): 94.33%
- VEGFR2 potency ranking in retina (VEGFR2 [3]): most potent VEGFR2 inhibitor

Compound: O=C(O)CC(O)C(=O)O (centres unmarked) [Malic]
- pKa (first or only value) [4]: 3.51
- pKa (second value) [4]: 5.03

Compound: COc1cc2nccc(Oc3ccc(NC(=O)C4(C(=O)Nc5ccc(F)cc5)CC4)cc3)c2cc1OC [Cabozantinib]
- VEGFR2 inhibition, Cornea (VEGFR2 [2]): 90.52%
- VEGFR2 inhibition, Retina (VEGFR2 [3]): 74.82%
- EGFR inhibition in the recombinant assays [5]: do not inhibit EGFR

Compound: COCCNCc1ccc(-c2cc3nccc(Oc4ccc(NC(=O)C5(C(=O)Nc6ccc(F)cc6)CC5)cc4F)c3s2)nc1 [Sitravatinib]
- IC50 (EGFR): 5 µM

Compound: Cc1[nH]c(/C=C2\C(=O)Nc3ccccc32)c(C)c1CCC(=O)O [Orantinib]
- concentration before autoclave ([9]; sample 1-29, MQ water with NaOH, pH 7.4, filtered 0.45 micrometer): 60 µq/ml
- concentration after autoclave ([9]; sample 1-29, pH 7.4): 64 µg/mL
- concentration before autoclave ([9]; sample 2-29, MQ water with NaOH, pH 7.6, filtered 0.45 micrometer): 182 µq/ml
- concentration after autoclave ([9]; sample 2-29, pH 7.6): 176 µg/mL
- concentration before autoclave ([9]; sample 3-29, MQ water with NaOH, pH 7.8, filtered 0.45 micrometer): 321 µq/ml
- concentration after autoclave ([9]; sample 3-29, pH 7.8): 316 µg/mL
- solubility at 4 h ([10]; water with 0 % (w/v) γ-cyclodextrin, water, 0 % (w/v) γCD, pH 6.3): 4 µg/mL (≈ 12.9 µM)
- solubility at 4 h ([10]; water with 5 % (w/v) γ-cyclodextrin, aqueous with cosolvent or surfactant or cyclodextrin, 5 % (w/v) γCD, pH 6.1): 14 µg/mL (≈ 45.1 µM)
- solubility at 4 h ([10]; water with 10 % (w/v) γ-cyclodextrin, aqueous with cosolvent or surfactant or cyclodextrin, 10 % (w/v) γCD, pH 6.2): 17 µg/mL (≈ 54.8 µM)
- solubility at 4 h ([10]; water with 15 % (w/v) γ-cyclodextrin, aqueous with cosolvent or surfactant or cyclodextrin, 15 % (w/v) γCD, pH 6.0): 12 µg/mL (≈ 38.7 µM)

Compound: Cediranib maleate
- solubility compared with the free base [12]: significant greater solubility than the free base

Compound: O=C(Nc1ccc(OC(F)(F)F)cc1)c1sccc1NCc1ccnc2ccccc12 [OSI-930]
- EGFR/VEGFR2 ratio (VEGFR2 [1]): 1000
- IC50 (EGFR): 10 µM

Compound: OC[C@H]1O[C@@H]2O[C@H]3[C@H](O)[C@@H](O)[C@@H](O[C@H]4[C@H](O)[C@@H](O)[C@@H](O[C@H]5[C@H](O)[C@@H](O)[C@@H](O[C@H]6[C@H](O)[C@@H](O)[C@@H](O[C@H]7[C@H](O)[C@@H](O)[C@@H](O[C@H]1[C@H](O)[C@H]2O)O[C@@H]7CO)O[C@@H]6CO)O[C@@H]5CO)O[C@@H]4CO)O[C@@H]3CO [α-cyclodextrin]
- solubility in pure water [13]: 129500 ± 700 µg/mL (≈ 133000 µM)

Compound: OC[C@H]1O[C@@H]2O[C@H]3[C@H](O)[C@@H](O)[C@@H](O[C@H]4[C@H](O)[C@@H](O)[C@@H](O[C@H]5[C@H](O)[C@@H](O)[C@@H](O[C@H]6[C@H](O)[C@@H](O)[C@@H](O[C@H]7[C@H](O)[C@@H](O)[C@@H](O[C@H]8[C@H](O)[C@@H](O)[C@@H](O[C@H]9[C@H](O)[C@@H](O)[C@@H](O[C@H]1[C@H](O)[C@H]2O)O[C@@H]9CO)O[C@@H]8CO)O[C@@H]7CO)O[C@@H]6CO)O[C@@H]5CO)O[C@@H]4CO)O[C@@H]3CO [γ-cyclodextrin]
- solubility in pure water [13]: 249200 ± 200 µg/mL (≈ 192000 µM)
- solubility in aqueous 3% (w/v) γ-cyclodextrin suspension saturated with hydrocortisone [13]: 13000 µg/mL
- solubility in pure water at room temperature [13]: about 250 mg/ml
- γCD in solution ([14]; 10 mg/ml Axi + 50 mg/ml γCD + Acetic acid (1:1 molar), pH 3.5): 24 mg/mL
- γCD in solution ([14]; 10 mg/ml Axi + 50 mg/ml γCD + Ascorbic acid (1:1 molar), pH 3.1): 27 mg/mL
- γCD in solution ([14]; 10 mg/ml Axi + 50 mg/ml γCD + Hydrochloric acid (1:1 molar), pH 3.2): 21 mg/mL
- γCD in solution ([14]; 10 mg/ml Axi + 50 mg/ml γCD + Lactic acid (1:1 molar), pH 2.8): 24 mg/mL
- γCD in solution ([14]; 10 mg/ml Axi + 50 mg/ml γCD + Maleic acid (1:1 molar), pH 2.3): 25 mg/mL
- γCD in solution ([14]; 10 mg/ml Axi + 50 mg/ml γCD + Malic acid (1:1 molar), pH 3.0): 24 mg/mL
- γCD in solution ([14]; 10 mg/ml Axi + 50 mg/ml γCD + Tartaric acid (1:1 molar), pH 2.7): 22 mg/mL
- γCD in solution ([14]; 10 mg/ml Axi + 50 mg/ml γCD, no acid, pH 9.1): 22 mg/mL

Compound: O=C(Nc1cc(Oc2cc(F)c(NC(=O)C3(C(=O)Nc4ccc(F)cc4)CC3)cc2F)ccn1)C1CC1 [Altiratinib]
- IC50 (EGFR): 3.3 µM

Compound: CC(O)C(=O)O.CC(O)C(=O)O.CN1CCN(c2ccc3nc(-c4c(N)c5c(F)cccc5[nH]c4=O)[nH]c3c2)CC1 [Dovitinib dilactate]
- increase of drug that could be dissolved and suspended ([11]; lactate salt with EDTA and surface active polymers, versus free base): ~10 fold
- S in water ([12]; pH 6.5): 0.3 ^b mg/mL

Compound: CC1(C)CNc2cc(NC(=O)c3cccnc3NCc3ccncc3)ccc21 [Motesanib]
- CE (complexation efficacy) [6]: 0.0052

The next lines start with results.

- EGFR/VEGFR2 ratio (VEGFR2 [1]): 10,000
Compound: COc1cc2c(Oc3ccc4[nH]c(C)cc4c3F)ccnc2cc1OCC1(N)CC1 [Anlotinib]
- IC50 (EGFR): 2 µM

- EGFR/VEGFR2 ratio (VEGFR2 [1]): 3333
Compound: O=C(Nc1cccc(C(F)(F)F)c1)c1cccc2cc(Oc3cc(CO)ncn3)ccc12 [BFH772]
- IC50 (EGFR): 10 µM

- CE (complexation efficacy) [6]: 0.00002
Compound: CNC(=O)c1cc(Oc2ccc(NC(=O)Nc3ccc(Cl)c(C(F)(F)F)c3)c(F)c2)ccn1 [Regorafenib]
- IC50 (EGFR): 1 µM

- EGFR/VEGFR2 ratio (VEGFR2 [1]): 2500
Compound: COc1cc2nccc(Oc3ccc(NC(=O)Nc4ccc(F)cc4F)c(F)c3)c2cc1OC [Ki8751]
- IC50 (VEGFR2 [7]): 0.004 µM
- IC50 (EGFR): 10 µM

- CE (complexation efficacy) [6]: 0.00002
Compound: Cc1ccc(Nc2nccc(N(C)c3ccc4c(C)n(C)nc4c3)n2)cc1S(N)(=O)=O [Pazopanib]

- CE (complexation efficacy) [6]: 0.0002
- VEGFR inhibition in the recombinant assays [8]: potent inhibitors for VEGFR
Compound: CNC(=O)c1ccccc1Sc1ccc2c(/C=C/c3ccccn3)n[nH]c2c1 [Axitinib]

- CE (complexation efficacy) [6]: 0.0578
- diameter of dissolved drug/γ-cyclodextrin complex nanoparticles [11, 16]: below 200 nm
- diameter of solid drug/γ-cyclodextrin complex microparticles [11, 16]: less than 10 µm
- fraction of drug dissolved (free drug, complexes or complex nanoparticles) [11, 16]: about 13%
- fraction of drug in solid drug/γ-cyclodextrin complex microparticles ([11]; γ-cyclodextrin eye drop formulations, from concentration before and after filtration): About 87%
Compound: COc1cc2c(Oc3ccc4[nH]c(C)cc4c3F)ncnc2cc1OCCCN1CCCC1 [Cediranib]

- EGFR/VEGFR2 ratio (VEGFR2 [1]): 857
Compound: CNC(=O)c1c(C)oc2cc(Oc3ncnc4cc(OC)c(OC)cc34)ccc12 [Fruquintinib]
- IC50 (EGFR): 30 µM

- fraction of drug dissolved, maximum [15]: about 7.5%
Compound: CNCc1cc(Oc2ccc3c(ccn3C(=O)Nc3cc(C(F)(F)F)n(C)n3)c2)ncn1 [Acrizanib]
- IC50 (EGFR): 1 µM

- EGFR/VEGFR2 ratio (VEGFR2 [1]): 25,000
Compound: Cc1cc(F)c(Nc2ncnc3cc(OCc4ccccc4)ccc23)cc1O [ZM 323881, 5-((7-Benzyloxyquinazolin-4-yl)amino)-4-fluoro-2-methylphenol]
- IC50 (EGFR): 50 µM
